Blank lines part the entries; values can stand above or below the compound they belong to. Active and inactive are the calls of the source. No cut-off for these calls is given here.
Assays:
[1] = biological target: T1, Neuronal acetylcholine receptor subunit alpha-7 (Homo sapiens, UniProt P36544); experiment: Silent agonist activity at human alpha7 nAChR expressed in acetylcholine-treated xenopus laevis oocytes at 30 uM in presence of PNU-120596 by two electrode voltage-clamp assay; type: cell-based; settings: Oocyte
T1 sequence (P36544 whole entry): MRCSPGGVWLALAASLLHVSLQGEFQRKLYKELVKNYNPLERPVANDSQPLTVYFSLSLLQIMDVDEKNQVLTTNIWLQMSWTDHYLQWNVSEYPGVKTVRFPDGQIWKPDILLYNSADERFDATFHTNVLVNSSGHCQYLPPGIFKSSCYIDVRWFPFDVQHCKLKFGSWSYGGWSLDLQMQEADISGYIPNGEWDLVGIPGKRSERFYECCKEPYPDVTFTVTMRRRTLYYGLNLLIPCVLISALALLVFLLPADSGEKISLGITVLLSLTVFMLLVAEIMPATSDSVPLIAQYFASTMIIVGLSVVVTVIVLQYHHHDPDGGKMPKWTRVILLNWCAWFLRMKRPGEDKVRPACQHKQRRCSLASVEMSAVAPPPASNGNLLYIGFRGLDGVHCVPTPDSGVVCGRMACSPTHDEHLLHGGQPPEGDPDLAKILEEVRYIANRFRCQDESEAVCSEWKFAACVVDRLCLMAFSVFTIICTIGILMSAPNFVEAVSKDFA

[2] = biological target: T1, Neuronal acetylcholine receptor subunit alpha-7; experiment: Desensitization of human alpha7 nAChR expressed in acetylcholine-treated xenopus laevis oocytes at 30 uM by two electrode voltage-clamp assay; type: cell-based; settings: Oocyte
[3] = biological target: T1, Neuronal acetylcholine receptor subunit alpha-7; experiment: Desensitization of human alpha7 nAChR expressed in acetylcholine-treated xenopus laevis oocytes at 30 uM pretreated with acetylcholine followed by compound treatment and re-treatment of acetylcholine by two electrode voltage-clamp assay; type: cell-based; settings: Oocyte
[4] = biological target: T1, Neuronal acetylcholine receptor subunit alpha-7; experiment: Agonist activity at human alpha7 nAChR expressed in xenopus laevis oocytes assessed as activation of acetylcholine-induced response by two electrode voltage-clamp assay (reference value: 1); type: cell-based; settings: Oocyte, filed as agonist
[5] = biological target: T1, Neuronal acetylcholine receptor subunit alpha-7; experiment: Agonist activity at human alpha7 nAChR expressed in xenopus laevis oocytes assessed as activation of acetylcholine-induced response by two electrode voltage-clamp assay; type: cell-based, Oocyte
[6] = biological target: T2, Neuronal acetylcholine receptor subunit alpha-9 (Homo sapiens, UniProt Q9UGM1); experiment: Antagonist activity at human alpha9 nAChR expressed in xenopus laevis oocytes assessed as inhibition of acetylcholine-induced response by two electrode voltage-clamp assay; type: cell-based, Oocyte
T2 sequence (Q9UGM1 whole entry): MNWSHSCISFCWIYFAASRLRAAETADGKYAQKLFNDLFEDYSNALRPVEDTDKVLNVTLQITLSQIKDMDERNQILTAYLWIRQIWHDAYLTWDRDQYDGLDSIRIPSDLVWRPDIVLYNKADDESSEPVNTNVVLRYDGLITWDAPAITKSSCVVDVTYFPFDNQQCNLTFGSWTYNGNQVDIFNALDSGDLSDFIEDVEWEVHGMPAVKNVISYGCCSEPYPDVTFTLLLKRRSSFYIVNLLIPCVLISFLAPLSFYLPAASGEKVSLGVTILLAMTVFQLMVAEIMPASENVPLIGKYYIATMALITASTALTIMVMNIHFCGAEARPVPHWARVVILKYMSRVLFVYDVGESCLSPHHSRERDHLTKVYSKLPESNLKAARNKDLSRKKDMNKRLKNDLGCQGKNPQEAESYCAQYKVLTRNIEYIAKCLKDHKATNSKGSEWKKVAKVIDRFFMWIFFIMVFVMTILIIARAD

[7] = biological target: T1, Neuronal acetylcholine receptor subunit alpha-7; experiment: Antagonist activity at human alpha7 nAChR expressed in acetylcholine-treated xenopus laevis oocytes at 30 uM by two electrode voltage-clamp assay; type: cell-based; settings: Oocyte, filed as antagonist
[8] = biological target: T1, Neuronal acetylcholine receptor subunit alpha-7; experiment: Antagonist activity at human alpha7 nAChR expressed in xenopus laevis oocytes assessed as inhibition of acetylcholine-induced response by two electrode voltage-clamp assay; type: cell-based, Oocyte
[9] = biological target: T1, Neuronal acetylcholine receptor subunit alpha-7; experiment: Desensitization of human alpha7 nAChR expressed in acetylcholine-treated xenopus laevis oocytes at 30 uM pretreated with acetylcholine followed by compound treatment and re-treatment of acetylcholine thrice by two electrode voltage-clamp assay; type: cell-based; settings: Oocyte
[10] = biological target: T2, Neuronal acetylcholine receptor subunit alpha-9; experiment: Activation of human alpha9 nAChR expressed in xenopus laevis oocytes at 30 uM by two electrode voltage-clamp assay; type: cell-based; settings: Oocyte
[11] = biological target: T2, Neuronal acetylcholine receptor subunit alpha-9; experiment: Silent agonist activity at human alpha9 nAChR expressed in acetylcholine-treated xenopus laevis oocytes at 30 uM by two electrode voltage-clamp assay; type: cell-based; settings: Oocyte, filed as agonist
[12] = biological target: T1, Neuronal acetylcholine receptor subunit alpha-7; experiment: Silent agonist activity at human alpha7 nAChR expressed in acetylcholine-treated xenopus laevis oocytes assessed as potentiated response at 30 uM in presence of PNU-120596 by two electrode voltage-clamp assay; type: cell-based; settings: Oocyte, filed as agonist
[13] = biological target: T1, Neuronal acetylcholine receptor subunit alpha-7; experiment: Silent agonist activity at human alpha7 nAChR expressed in acetylcholine-treated xenopus laevis oocytes assessed as relative response at 30 uM by two electrode voltage-clamp assay; type: cell-based; settings: Oocyte, filed as agonist
Mus musculus [14] = experiment: Anti-allodynic effect in C57BL/6J mouse model of CFA-induced chronic inflammatory pain assessed as reduction in mechanical hypersensitivity at 0.3 mg/kg, ip measured after 1 hr; type: functional, organism-based
Mus musculus [15] = experiment: Anti-allodynic effect in C57BL/6J mouse model of CFA-induced chronic inflammatory pain assessed as reduction in mechanical hypersensitivity at 1 mg/kg, ip measured for 1 hr relative to control; type: functional; set-up: scale not given: the % may be the effect or the level left
Mus musculus [16] = experiment: Anti-allodynic effect in C57BL/6J mouse model of CFA-induced chronic inflammatory pain assessed as reduction in mechanical hypersensitivity at 0.3 to 1 mg/kg, ip measured for 6 hrs; type: functional, organism-based; settings: dose 0.3-1 mg/kg
Mus musculus [17] = experiment: Effect on von Frey responses in C57BL/6J mouse model of CFA-induced chronic inflammatory pain at 0.3 to 1 mg/kg, ip measured for 0.5 to 6 hrs; type: functional, organism-based; settings: dose 0.3-1 mg/kg, time 0.5-6 hrs
Mus musculus [18] = experiment: Anti-inflammatory activity in C57BL/6J mouse model of CFA-induced chronic inflammatory pain assessed as reduction in paw edema at 1 mg/kg, ip measured for 0.5 to 6 hrs; type: functional, organism-based; settings: time 0.5-6 hrs
Mus musculus [19] = experiment: Anti-nociceptive effect in CFA C57BL/6J mouse model with alpha7 nAChR knockout at 1 mg/kg, ip measured after 3 days; type: functional, organism-based; settings: time 3.0 day
Mus musculus [20] = experiment: Effect on locomotor activity in C57BL/6J mouse model of CFA-induced chronic inflammatory pain at 1 mg/kg, ip measured for 0.5 to 6 hrs; type: functional, organism-based; settings: time 0.5-6 hrs
[21] = biological target: T2, Neuronal acetylcholine receptor subunit alpha-9; experiment: Agonist activity at human alpha9 nAChR expressed in xenopus laevis oocytes assessed as activation of acetylcholine-induced response by two electrode voltage-clamp assay (reference value: 1); type: cell-based; settings: Oocyte, filed as agonist
[22] = biological target: T2, Neuronal acetylcholine receptor subunit alpha-9; experiment: Agonist activity at human alpha9 nAChR expressed in xenopus laevis oocytes assessed as activation of acetylcholine-induced response by two electrode voltage-clamp assay; type: cell-based, Oocyte
Mus musculus [23] = experiment: Anti-allodynic effect in C57BL/6J mouse model of CFA-induced chronic inflammatory pain assessed as reduction in mechanical hypersensitivity at 3 mg/kg, ip measured after 1 hr; type: functional, organism-based
Mus musculus [24] = experiment: Anti-allodynic effect in C57BL/6J mouse model of CFA-induced chronic inflammatory pain assessed as reduction in mechanical hypersensitivity at 3 mg/kg, ip measured after 6 hrs; type: functional, organism-based
Mus musculus [25] = experiment: Effect on von Frey responses in C57BL/6J mouse model of CFA-induced chronic inflammatory pain at 1 to 3 mg/kg, ip measured for 0.5 to 6 hrs; type: functional, organism-based; settings: dose 1-3 mg/kg, time 0.5-6 hrs
Mus musculus [26] = experiment: Anti-inflammatory activity in C57BL/6J mouse model of CFA-induced chronic inflammatory pain assessed as reduction in paw edema at 1 to 3 mg/kg, ip measured for 0.5 to 6 hrs; type: functional, organism-based; settings: dose 1-3 mg/kg, time 0.5-6 hrs
Mus musculus [27] = experiment: Effect on locomotor activity in C57BL/6J mouse model of CFA-induced chronic inflammatory pain at 3 mg/kg, ip measured for 0.5 to 6 hrs; type: functional, organism-based; settings: time 0.5-6 hrs

SMILES: C1C[S+]2CCC(CC2)N1
Activity [1]: inactive
Activity [2]: inactive
Activity [3]: inactive
max activation [4]: 0.98
EC50 [5]: 41 µM

Activity ([1]; filed as agonist): Active; Silent Agonist Activity Observed
IC50 [6]: 7.9 µM
SMILES: C[S+]1CCCN(C(=O)c2ccc(-c3cccc(C(F)(F)F)c3)o2)CC1 (stereo unspecified)

Activity ([1]; filed as agonist): Active; Silent Agonist Activity Observed
SMILES: C[S+](C)CCCNC(=O)c1ccc(-c2cccc(C(F)(F)F)c2)o1

Activity [1]: inactive
SMILES: O=C(c1ccc(-c2cccc(C(F)(F)F)c2)o1)N1CCSCC1

Activity [7]: Active
IC50 [8]: 5.24 µM
SMILES: O=C(c1ccc(-c2cccc(C(F)(F)F)c2)o1)N1CC[S+]2CCC1CC2

Activity [1]: inactive
SMILES: CCSCCNC(=O)c1ccc(-c2cccc(C(F)(F)F)c2)o1

Activity [1]: inactive
max activation [4]: 0.26
EC50 [5]: 2.4 µM
SMILES: C[S+]1CCN(C(=O)c2ccc(-c3cccc(C(F)(F)F)c3)o2)CC1
Activity ([2]; filed as agonist): Active; Silent Agonist Activity Observed
Activity [9]: inactive

Activity [1]: inactive
SMILES: O=C(c1ccc(-c2cccc(C(F)(F)F)c2)o1)N1CCCSCC1

Activity [1]: inactive
SMILES: C[S+](C)CCNC(=O)c1ccc(-c2cccc(C(F)(F)F)c2)o1

Activity [1]: inactive
SMILES: CSCCCNC(=O)c1ccc(-c2cccc(C(F)(F)F)c2)o1

Activity [7]: Active
IC50 [8]: 26.3 µM
IC50 [6]: 4.03 µM
SMILES: CC[S+]1CCCN(C(=O)c2ccc(-c3cccc(C(F)(F)F)c3)o2)CC1 (stereo unspecified)

Activity [1]: inactive
SMILES: CSCCNC(=O)c1ccc(-c2cccc(C(F)(F)F)c2)o1

SMILES: O=C(c1ccc(-c2cccc(C(F)(F)F)c2)o1)N1CCN2CCC1CC2
Activity [10]: inactive
Activity [11]: Active; Silent Agonist Activity Observed

Activity ([1]; filed as agonist): Active; Silent Agonist Activity Observed
Activity [12]: 11.2
Activity [13]: 0.016
SMILES: CC[S+]1CCN(C(=O)c2ccc(-c3cccc(C(F)(F)F)c3)o2)CC1.O=S(=O)([O-])C(F)(F)F
Activity (Mus musculus [14]): Active
Activity (Mus musculus [15]): 100%
Activity (Mus musculus [16]): inactive
Activity (Mus musculus [17]): No effect
Activity (Mus musculus [18]): Active
Activity (Mus musculus [19]): Active
Activity (Mus musculus [20]): No effect

Activity [7]: Active
SMILES: O=C(c1ccco1)N1CC[S+]2CCC1CC2

Activity [7]: Active
IC50 [8]: 2.82 µM
max activation [21]: 0.18
EC50 [22]: 2.38 µM
SMILES: CC[S+](CC)CCNC(=O)c1ccc(-c2cccc(C(F)(F)F)c2)o1
Activity (Mus musculus [23]): Active
Activity (Mus musculus [24]): inactive
Activity (Mus musculus [25]): No effect
Activity (Mus musculus [26]): inactive
Activity (Mus musculus [27]): No effect

From ChEMBL document CHEMBL6096724, “Sulfonium Moieties as Ammonium Bioisosteres: Novel Ligands for the Alpha7 Nicotinic Acetylcholine Receptor” (J Med Chem, 2025)
